According to publication PMC11513893, “Discovery of Oral Degraders of the ROS1 Fusion Protein with Potent Activity against Secondary Resistance Mutations” (Journal of Medicinal Chemistry, 2024):
Values joined by “and” are separate entries in the source; they are usually repeats but may differ in a detail not shown here. Equal entries are not always repeated.

Key:
INSRR = INSRR (Homo sapiens, UniProt P14616); assay: Kinase assay; format: biochemical; conditions: average of duplicate measurements
[1] = test system: Ba/F3 SLC34A2-ROS1 G2032R xenograft tumors; assay: Mouse efficacy study, Ba/F3 SLC34A2-ROS1 G2032R xenograft; format: in vivo; conditions: NOD/SCID mice
Procedure: All the procedures related to animal handling, care, and treatment in this study were performed according to guidelines approved by the Institutional Animal Care and Use Committee (IACUC) of Xavier University of Louisiana following the guidance of the AAALAC. Ba/F3-ROS1 and Ba/F3-ROS1-G2032R cells were maintained in RPMI 1640 medium supplemented with 10% fetal bovine serum. The cells growing in an exponential growth phase were harvested and counted for tumor inoculation. Female NOD/SCID mice 6–8 weeks of age were allowed to adapt to laboratory conditions for 10 days prior to dosing and were allowed food and water ad libitum. Each mouse was inoculated subcutaneously in the right flank with Ba/F3 CD74-ROS1 or Ba/F3 SL34A2-ROS1 G2032R cells (1 × 10^6) in 0.2 mL of PBS mixed with Matrigel (50:50) for tumor development.

LTK [2] = molecular target: T1, LTK (Homo sapiens, UniProt P29376); assay: Kinase assay; format: biochemical; conditions: average of duplicate measurements
T1 sequence (P29376 17-864, species assumed): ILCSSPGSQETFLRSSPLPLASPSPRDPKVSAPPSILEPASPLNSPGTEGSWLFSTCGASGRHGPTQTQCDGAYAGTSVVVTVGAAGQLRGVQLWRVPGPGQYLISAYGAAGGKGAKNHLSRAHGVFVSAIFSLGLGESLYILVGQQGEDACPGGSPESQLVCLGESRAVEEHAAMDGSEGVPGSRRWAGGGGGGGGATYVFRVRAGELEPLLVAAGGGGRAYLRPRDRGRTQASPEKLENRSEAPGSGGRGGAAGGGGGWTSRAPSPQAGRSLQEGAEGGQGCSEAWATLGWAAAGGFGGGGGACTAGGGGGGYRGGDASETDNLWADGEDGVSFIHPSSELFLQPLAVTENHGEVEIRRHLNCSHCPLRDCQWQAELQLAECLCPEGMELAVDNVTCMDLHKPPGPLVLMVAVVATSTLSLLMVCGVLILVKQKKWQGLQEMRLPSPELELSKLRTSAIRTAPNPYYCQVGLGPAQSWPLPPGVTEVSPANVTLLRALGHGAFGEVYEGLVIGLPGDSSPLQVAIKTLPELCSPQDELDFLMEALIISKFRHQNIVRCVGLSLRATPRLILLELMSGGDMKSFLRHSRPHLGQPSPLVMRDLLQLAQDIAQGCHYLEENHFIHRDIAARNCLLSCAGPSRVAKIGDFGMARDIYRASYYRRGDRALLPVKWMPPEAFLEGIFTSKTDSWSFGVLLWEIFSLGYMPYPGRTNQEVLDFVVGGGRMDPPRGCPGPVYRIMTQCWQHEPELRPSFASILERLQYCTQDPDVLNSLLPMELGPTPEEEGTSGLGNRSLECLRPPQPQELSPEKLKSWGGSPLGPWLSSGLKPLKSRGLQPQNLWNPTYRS

ROS1 (G2101A) = ROS1 (G2101A) (Homo sapiens, UniProt P08922, G2101A); assay: Kinase assay; format: biochemical; conditions: average of duplicate measurements
FES [3] = molecular target: T2, FES (Homo sapiens, UniProt P07332); assay: Kinase assay; format: biochemical; conditions: average of duplicate measurements
T2 sequence (P07332 whole entry, species assumed): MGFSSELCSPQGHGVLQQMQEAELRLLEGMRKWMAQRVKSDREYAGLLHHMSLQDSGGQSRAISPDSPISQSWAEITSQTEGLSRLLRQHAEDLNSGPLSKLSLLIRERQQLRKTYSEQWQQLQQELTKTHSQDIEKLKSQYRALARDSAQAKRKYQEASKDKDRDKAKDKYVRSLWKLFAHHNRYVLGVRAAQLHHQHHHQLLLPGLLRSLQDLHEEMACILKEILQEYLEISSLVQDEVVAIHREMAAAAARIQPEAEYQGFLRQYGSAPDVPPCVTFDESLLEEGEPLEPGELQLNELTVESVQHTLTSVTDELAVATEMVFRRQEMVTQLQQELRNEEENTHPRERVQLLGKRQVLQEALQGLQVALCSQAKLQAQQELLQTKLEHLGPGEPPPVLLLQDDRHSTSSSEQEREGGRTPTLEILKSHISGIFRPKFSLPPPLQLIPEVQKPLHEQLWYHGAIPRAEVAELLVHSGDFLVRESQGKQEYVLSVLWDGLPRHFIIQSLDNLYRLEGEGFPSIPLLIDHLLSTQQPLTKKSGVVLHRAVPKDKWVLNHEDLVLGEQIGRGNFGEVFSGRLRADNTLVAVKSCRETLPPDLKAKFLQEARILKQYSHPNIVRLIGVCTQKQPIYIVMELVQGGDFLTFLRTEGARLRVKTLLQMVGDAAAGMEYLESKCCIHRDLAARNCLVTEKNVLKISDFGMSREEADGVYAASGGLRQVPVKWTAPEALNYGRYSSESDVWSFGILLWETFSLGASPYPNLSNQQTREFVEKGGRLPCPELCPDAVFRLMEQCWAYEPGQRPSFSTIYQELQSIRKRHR

[4] = test system: Ba/F3 ROS1 (SLC34A2) L2026M; assay: Antiproliferation assay; format: cell-based; conditions: Mus musculus, BaF3; Ba/F3 cell line
Procedure: (§1) Ba/F3 immortalized murine bone marrow–derived pro-B cells were obtained from Creative Biogene (Shirley, NY) and cultured in RPMI supplemented with 10% FBS and IL3 (0.5 ng/mL). Ba/F3 cells expressing ROS1 variants were maintained in RPMI supplemented with 10% FBS and puromycin (0.7 mg/mL). […] Each compound was dissolved in DMSO and serially diluted in RPMI for cell culture experiments.
(§2) To assess the 72 h effect of drug treatment on cell proliferation, 2000 to 3000 cells were plated in replicates of three in 96-well plates. The plates were placed in an incubator at 37 °C, 5% CO2 for 72 h. Following drug treatments, the cells were incubated with the Alamar Blue Assay reagent (BioRad), 5 μL each well for 4 h at 37 °C and 5% CO2. Luminescence was measured on a multiplate reader and analyzed. […] IC50 values were determined using a nonlinear regression model with a sigmoidal dose response in GraphPad. The data were collected based on triplicate experiments, and presented as mean ± SD.

[5] = test system: Ba/F3 ROS1 (SLC34A2) G2032R-F2075 V; assay: Antiproliferation assay; format: cell-based; conditions: Mus musculus, BaF3; Ba/F3 cell line
Procedure: as §1, §2

[6] = test system: Ba/F3 ROS1 (SLC34A2) D2033N; assay: Antiproliferation assay; format: cell-based; conditions: Mus musculus, BaF3; Ba/F3 cell line
Procedure: as §1, §2

Ba/F3 ROS1 (SLC34A2) = assay: Antiproliferation assay; format: cell-based; conditions: Mus musculus, BaF3; Ba/F3 cell line
Procedure: as §1, §2

[7] = test system: Ba/F3 ROS1 (SLC34A2) V2098I; assay: Antiproliferation assay; format: cell-based; conditions: Mus musculus, BaF3; Ba/F3 cell line
Procedure: as §1, §2

[8] = test system: Ba/F3 ROS1 (SLC34A2) G2032R; assay: Antiproliferation assay; format: cell-based; conditions: Mus musculus, BaF3; Ba/F3 cell line
Procedure: as §1, §2

FER [9] = molecular target: T3, FER (Homo sapiens, UniProt P16591); assay: Kinase assay; format: biochemical; conditions: average of duplicate measurements
T3 sequence (P16591 whole entry, species assumed): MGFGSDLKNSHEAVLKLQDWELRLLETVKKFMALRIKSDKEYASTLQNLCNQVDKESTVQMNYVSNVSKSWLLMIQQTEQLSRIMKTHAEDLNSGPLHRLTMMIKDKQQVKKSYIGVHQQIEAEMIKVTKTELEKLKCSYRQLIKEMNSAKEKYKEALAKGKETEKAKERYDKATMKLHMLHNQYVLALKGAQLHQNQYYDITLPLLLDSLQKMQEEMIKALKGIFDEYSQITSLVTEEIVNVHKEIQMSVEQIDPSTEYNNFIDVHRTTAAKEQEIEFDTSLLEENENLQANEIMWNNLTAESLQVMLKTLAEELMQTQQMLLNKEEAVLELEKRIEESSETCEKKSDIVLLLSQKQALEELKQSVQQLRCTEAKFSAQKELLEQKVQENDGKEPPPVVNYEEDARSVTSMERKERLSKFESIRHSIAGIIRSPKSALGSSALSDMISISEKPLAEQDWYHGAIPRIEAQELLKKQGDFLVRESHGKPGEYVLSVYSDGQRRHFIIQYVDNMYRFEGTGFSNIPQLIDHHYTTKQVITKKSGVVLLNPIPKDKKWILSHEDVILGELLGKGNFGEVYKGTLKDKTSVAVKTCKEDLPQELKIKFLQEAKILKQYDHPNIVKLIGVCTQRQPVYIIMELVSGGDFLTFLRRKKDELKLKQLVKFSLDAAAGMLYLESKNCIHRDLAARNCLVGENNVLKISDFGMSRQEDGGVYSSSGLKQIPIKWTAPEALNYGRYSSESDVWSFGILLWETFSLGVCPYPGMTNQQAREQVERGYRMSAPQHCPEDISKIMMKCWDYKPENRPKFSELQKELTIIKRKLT

PTK2B = PTK2B (Homo sapiens, UniProt Q14289); assay: Kinase assay; format: biochemical; conditions: average of duplicate measurements
EGFR = EGFR (Homo sapiens, UniProt P00533); assay: Degradation assay; format: cell-based; conditions: average of duplicate measurements
Procedure: (§3) However, the degradation selectivity of 9o often contrasts with its kinase binding selectivity as determined in cells treated with 9o where the kinase level was measurable by Western blot analysis. […] For example, FLT3, CHEK2, and FES, all with kinase binding at <10 nM, were only moderately or minimally degraded, if at all (Table 9).

C-MET = C-MET (Homo sapiens, UniProt P08581); assay: Degradation assay; format: cell-based; conditions: average of duplicate measurements
Procedure: as §3

ALK = ALK (Homo sapiens, UniProt Q9UM73); assay: Degradation assay; format: cell-based; conditions: average of duplicate measurements
Chain of ALK (Q9UM73 19-1620, species assumed): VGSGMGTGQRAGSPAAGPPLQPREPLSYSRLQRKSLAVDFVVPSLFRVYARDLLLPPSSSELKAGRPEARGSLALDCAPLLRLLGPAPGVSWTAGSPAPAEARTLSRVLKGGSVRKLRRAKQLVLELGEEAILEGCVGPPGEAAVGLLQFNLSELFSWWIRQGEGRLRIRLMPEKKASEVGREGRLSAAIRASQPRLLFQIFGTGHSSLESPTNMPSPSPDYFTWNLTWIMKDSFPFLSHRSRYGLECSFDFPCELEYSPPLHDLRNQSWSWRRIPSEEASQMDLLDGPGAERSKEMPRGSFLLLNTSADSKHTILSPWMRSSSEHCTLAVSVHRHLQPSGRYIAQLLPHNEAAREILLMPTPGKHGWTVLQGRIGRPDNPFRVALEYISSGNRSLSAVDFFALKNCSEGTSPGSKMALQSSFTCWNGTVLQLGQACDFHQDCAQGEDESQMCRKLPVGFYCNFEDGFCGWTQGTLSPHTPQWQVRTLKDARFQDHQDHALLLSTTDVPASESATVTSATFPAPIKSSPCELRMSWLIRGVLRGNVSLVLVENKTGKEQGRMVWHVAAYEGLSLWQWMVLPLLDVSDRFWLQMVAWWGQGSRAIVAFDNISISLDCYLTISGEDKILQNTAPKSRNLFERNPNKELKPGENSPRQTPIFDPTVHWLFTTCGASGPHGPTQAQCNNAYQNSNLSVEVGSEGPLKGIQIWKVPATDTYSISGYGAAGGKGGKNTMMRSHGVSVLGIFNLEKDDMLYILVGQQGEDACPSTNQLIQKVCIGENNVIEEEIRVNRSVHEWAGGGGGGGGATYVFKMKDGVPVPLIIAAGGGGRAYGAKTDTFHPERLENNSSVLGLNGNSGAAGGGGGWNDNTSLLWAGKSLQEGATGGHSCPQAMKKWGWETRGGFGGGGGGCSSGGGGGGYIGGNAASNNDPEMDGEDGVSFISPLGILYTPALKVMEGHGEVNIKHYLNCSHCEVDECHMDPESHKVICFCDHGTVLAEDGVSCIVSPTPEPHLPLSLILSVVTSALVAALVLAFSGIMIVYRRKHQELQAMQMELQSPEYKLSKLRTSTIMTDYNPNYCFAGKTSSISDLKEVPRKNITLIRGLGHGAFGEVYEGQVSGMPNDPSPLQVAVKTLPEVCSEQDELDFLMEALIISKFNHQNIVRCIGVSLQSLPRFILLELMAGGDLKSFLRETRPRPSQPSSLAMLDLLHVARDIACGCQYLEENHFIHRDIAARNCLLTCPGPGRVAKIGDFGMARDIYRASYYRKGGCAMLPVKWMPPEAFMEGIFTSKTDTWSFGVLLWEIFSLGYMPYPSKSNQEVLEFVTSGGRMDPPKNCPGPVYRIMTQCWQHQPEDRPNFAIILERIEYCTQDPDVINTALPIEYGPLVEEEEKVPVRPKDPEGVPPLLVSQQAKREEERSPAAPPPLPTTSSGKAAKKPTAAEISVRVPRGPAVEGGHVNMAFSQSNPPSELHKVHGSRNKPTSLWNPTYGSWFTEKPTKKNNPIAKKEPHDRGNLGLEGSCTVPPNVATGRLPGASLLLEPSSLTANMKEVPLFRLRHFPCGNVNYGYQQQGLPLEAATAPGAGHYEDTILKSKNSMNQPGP
Procedure: as §3

FES [10] = molecular target: T2, FES; assay: Degradation assay; format: cell-based; conditions: average of duplicate measurements
Procedure: as §3

FER [11] = molecular target: T3, FER; assay: Degradation assay; format: cell-based; conditions: average of duplicate measurements
Procedure: as §3

FAK/PTK2 = FAK/PTK2 (Homo sapiens, UniProt Q05397); assay: Degradation assay; format: cell-based; conditions: average of duplicate measurements
Procedure: as §3

FLT3 = FLT3 (Homo sapiens, UniProt P36888); assay: Degradation assay; format: cell-based; conditions: average of duplicate measurements
Chain of FLT3 (P36888 27-993, species assumed): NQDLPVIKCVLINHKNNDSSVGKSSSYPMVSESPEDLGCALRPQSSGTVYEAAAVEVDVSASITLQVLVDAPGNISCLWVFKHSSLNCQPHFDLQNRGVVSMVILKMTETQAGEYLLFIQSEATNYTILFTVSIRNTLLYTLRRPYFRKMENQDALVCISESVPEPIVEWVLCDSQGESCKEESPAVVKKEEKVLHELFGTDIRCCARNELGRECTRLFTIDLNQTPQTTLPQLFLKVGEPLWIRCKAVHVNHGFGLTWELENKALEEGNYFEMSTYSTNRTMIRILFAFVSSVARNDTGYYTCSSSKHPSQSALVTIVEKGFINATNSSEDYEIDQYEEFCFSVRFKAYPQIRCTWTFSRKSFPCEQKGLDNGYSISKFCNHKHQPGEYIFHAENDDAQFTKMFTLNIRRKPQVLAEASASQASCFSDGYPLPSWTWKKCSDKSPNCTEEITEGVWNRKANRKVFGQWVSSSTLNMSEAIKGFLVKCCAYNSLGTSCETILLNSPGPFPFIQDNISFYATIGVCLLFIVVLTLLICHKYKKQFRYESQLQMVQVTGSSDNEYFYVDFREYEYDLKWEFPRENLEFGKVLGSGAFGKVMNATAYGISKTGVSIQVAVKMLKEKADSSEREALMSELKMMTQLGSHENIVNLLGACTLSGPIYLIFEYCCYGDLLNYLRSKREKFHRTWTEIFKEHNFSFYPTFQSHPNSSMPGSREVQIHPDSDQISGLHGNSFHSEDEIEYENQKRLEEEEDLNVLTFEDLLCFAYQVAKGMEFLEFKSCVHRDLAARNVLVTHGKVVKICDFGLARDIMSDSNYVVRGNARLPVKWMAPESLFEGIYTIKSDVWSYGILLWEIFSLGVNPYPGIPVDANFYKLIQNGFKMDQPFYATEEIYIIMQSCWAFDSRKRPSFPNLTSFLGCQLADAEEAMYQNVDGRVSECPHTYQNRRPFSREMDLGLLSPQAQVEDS
Procedure: as §3

CHEK2 = CHEK2 (Homo sapiens, UniProt O96017); assay: Degradation assay; format: cell-based; conditions: average of duplicate measurements
Procedure: as §3

CAMK2D = assay: Degradation assay; format: cell-based; conditions: average of duplicate measurements
Procedure: as §3

CLK1 = CLK1 (Homo sapiens, UniProt P49759); assay: Degradation assay; format: cell-based; conditions: average of duplicate measurements
Procedure: as §3

RET = RET (Homo sapiens, UniProt P07949); assay: Degradation assay; format: cell-based; conditions: average of duplicate measurements
Procedure: as §3

ERBB4/HER4 = ERBB4/HER4 (Homo sapiens, UniProt Q15303); assay: Degradation assay; format: cell-based; conditions: average of duplicate measurements
Procedure: as §3

LTK [12] = molecular target: T1, LTK; assay: Degradation assay; format: cell-based; conditions: average of duplicate measurements
Procedure: as §3

ERBB2 = ERBB2 (Homo sapiens, UniProt P04626); assay: Degradation assay; format: cell-based; conditions: average of duplicate measurements
Procedure: as §3

ROS1 (L2086F) = ROS1 (L2086F) (Homo sapiens, UniProt P08922, L2086F); assay: Kinase assay; format: biochemical; conditions: average of duplicate measurements
CHEK1 = CHEK1 (Homo sapiens, UniProt O14757); assay: Kinase assay; format: biochemical; conditions: average of duplicate measurements

With COc1cc(N2CCC(N3CCN(CC4CCN(c5ccc6c(c5)CN(C5CCC(=O)NC5=O)C6=O)CC4)CC3)CC2)ccc1Nc1ncc(Cl)c(Nc2ccccc2P(C)(C)=O)n1 (stereo not drawn) [9o, 3-(5-(4-((4-(1-(4-((5-Chloro-4-((2-(dimethylphosphoryl)phenyl)amino)pyrimidin-2-yl)amino)-3-methoxyphenyl)piperidin-4-yl)piperazin-1-yl)methyl)piperidin-1-yl)-1-oxoisoindolin-2-yl)piperidine-2,6-dione] the IC50 (INSRR) was 45 nM, the “TGI (tumor growth inhibition)” value ([1]; 10 mg/kg PO qd) was 33% and the “TGI (tumor growth inhibition)” value ([1]; 30 mg/kg PO qd) was 78%. The IC50 (LTK [2]) was 54 nM, the IC50 (ROS1 (G2101A)) was 10.9 nM and the IC50 (FES [3]) was < 10 nM and 7.5 nM. The IC50 [4] was 2.5 ± 0.6 nM, the IC50 [5] was 5.6 ± 0.6 nM and the IC50 [6] was 9.7 ± 2.6 nM. For the same compound, the IC50 (Ba/F3 ROS1 (SLC34A2)) was 1.1 ± 0.4 nM, the IC50 [7] was 4.6 ± 2.1 nM and the IC50 [8] was 6.3 ± 1.1 nM. It also gave an IC50 (FER [9]) of 3.1 nM, an IC50 (PTK2B) of 34 nM and a DC50 (EGFR) of 255 nM. It also gave a DC50 (C-MET) of over 1000 nM, a DC50 (ALK) of 1.7 nM and a DC50 (FES [10]) of 320 nM. The DC50 (FER [11]) was 17 nM, the DC50 (FAK/PTK2) was 1.5 nM and the DC50 (FLT3) was over 1000 nM. The DC50 (CHEK2) was 187 nM, the DC50 (CAMK2D) was 264 nM and the DC50 (CLK1) was over 1000 nM. For the same compound, the DC50 (RET) was 58 nM, the DC50 (ERBB4/HER4) was over 1000 nM and the DC50 (LTK [12]) was over 1000 nM. For the same compound, the DC50 (ERBB2) was 474 nM, the IC50 (ROS1 (L2086F)) was 218 nM and the IC50 (CHEK1) was 40 nM.
